# From ChEMBL document CHEMBL1122929, “6,7-Dihydro-5-[[(cis-2-hydroxy-trans-3-phenoxycyclopentyl)amino] methyl]-2-methylbenzo[b]thiophen-4(5H)-one: a novel alpha 1-adrenergic receptor antagonist and renal vasodilator” (J Med Chem, 1985)
# Calls of active or inactive are those of the source. The calls are words filed in the database; no cut-off is given here.
# Tests used:
# Canis familiaris [1] = experiment: Mean arterial blood pressure was determined at cumulative dose of 0.1 mg/kg in anesthetized dogs by intravenous administration after sulpiride pretreatment; type: functional, Canis lupus familiaris
# Canis familiaris [2] = experiment: Renal blood flow was determined at cumulative dose of 0.01 mg/kg in anesthetized dogs by intravenous administration after sulpiride pretreatment; type: functional, Canis lupus familiaris, Kidney
# Canis familiaris [3] = experiment: Renal blood flow was determined at cumulative dose of 1 mg/kg in anesthetized dogs by intravenous administration after SCH 23390 pretreatment; type: functional, Canis lupus familiaris, Kidney
# [4] = target: T1, Adrenergic receptor alpha-2 (Rattus norvegicus, UniProt P22086+P19328+P22909); experiment: Ability to inhibit 50% specific binding of [3H]-p-amino clonidine radioligand to alpha-2 adrenergic receptor in rat cerebrocortex; type: tissue-based, Cortex
# T1 sequence (P22086 whole entry): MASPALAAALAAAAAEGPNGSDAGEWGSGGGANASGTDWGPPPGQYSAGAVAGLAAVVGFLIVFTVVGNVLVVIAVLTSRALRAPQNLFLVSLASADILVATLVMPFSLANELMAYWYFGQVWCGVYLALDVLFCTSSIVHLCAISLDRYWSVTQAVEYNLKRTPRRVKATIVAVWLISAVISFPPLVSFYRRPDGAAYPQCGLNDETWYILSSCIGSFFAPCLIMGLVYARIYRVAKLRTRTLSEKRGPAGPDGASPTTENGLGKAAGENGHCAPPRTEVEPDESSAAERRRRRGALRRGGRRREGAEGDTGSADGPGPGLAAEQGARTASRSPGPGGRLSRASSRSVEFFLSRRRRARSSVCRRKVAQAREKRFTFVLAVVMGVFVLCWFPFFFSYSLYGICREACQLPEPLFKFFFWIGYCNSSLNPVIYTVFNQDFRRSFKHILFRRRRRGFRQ
# T1 sequence (P19328 whole entry): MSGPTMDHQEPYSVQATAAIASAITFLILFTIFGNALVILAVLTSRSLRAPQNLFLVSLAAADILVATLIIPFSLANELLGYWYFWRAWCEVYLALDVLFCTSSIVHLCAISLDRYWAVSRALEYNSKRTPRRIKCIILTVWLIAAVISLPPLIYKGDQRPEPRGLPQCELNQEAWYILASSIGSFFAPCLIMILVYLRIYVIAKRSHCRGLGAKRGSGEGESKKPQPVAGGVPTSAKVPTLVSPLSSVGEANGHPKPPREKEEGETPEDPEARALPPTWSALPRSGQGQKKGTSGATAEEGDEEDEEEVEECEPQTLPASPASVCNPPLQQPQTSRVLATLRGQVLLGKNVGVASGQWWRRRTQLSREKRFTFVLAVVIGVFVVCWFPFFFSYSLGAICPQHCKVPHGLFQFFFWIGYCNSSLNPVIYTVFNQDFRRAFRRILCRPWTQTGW
# T1 sequence (P22909 whole entry): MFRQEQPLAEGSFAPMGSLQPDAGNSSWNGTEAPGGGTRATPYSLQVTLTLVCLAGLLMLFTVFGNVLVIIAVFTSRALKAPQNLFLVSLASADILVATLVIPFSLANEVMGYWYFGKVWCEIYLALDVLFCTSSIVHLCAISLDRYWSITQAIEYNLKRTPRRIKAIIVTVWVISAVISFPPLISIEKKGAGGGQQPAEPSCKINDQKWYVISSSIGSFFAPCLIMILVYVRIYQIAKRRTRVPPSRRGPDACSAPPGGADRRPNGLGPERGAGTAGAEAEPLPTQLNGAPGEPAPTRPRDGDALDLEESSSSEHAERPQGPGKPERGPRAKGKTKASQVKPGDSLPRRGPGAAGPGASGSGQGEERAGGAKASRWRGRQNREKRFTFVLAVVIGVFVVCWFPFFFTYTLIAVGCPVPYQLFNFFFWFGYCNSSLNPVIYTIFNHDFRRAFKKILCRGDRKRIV
# Canis familiaris [5] = experiment: Mean arterial blood pressure was determined at cumulative dose of 1 mg/kg in anesthetized dogs by intravenous administration after SCH 23390 pretreatment; type: functional, Canis lupus familiaris
# Canis familiaris [6] = experiment: Mean arterial blood pressure was determined at cumulative dose of 1 mg/kg in anesthetized dogs by intravenous administration after sulpiride pretreatment; type: functional, Canis lupus familiaris
# Rattus norvegicus [7] = experiment: Mean arterial blood pressure (MABP) was evaluated in chronically cannulated spontaneously hypertensive rats (SHR) after peroral administration 30 mg/kg of compound; […]; type: functional
# [8] = target: Adrenergic receptor alpha-1 (Oryctolagus cuniculus); experiment: pA2 value for phenylephrine antagonist towards at alpha-1 adrenergic receptor was determined in rabbit aorta
# Canis familiaris [9] = experiment: Mean arterial blood pressure was determined at cumulative dose of 0.03 mg/kg in anesthetized dogs by intravenous administration after SCH 23390 pretreatment; type: functional, Canis lupus familiaris
# Canis familiaris [10] = experiment: Renal blood flow was determined at cumulative dose of 0.1 mg/kg in anesthetized dogs by intravenous administration after SCH 23390 pretreatment; type: functional, Canis lupus familiaris, Kidney
# Canis familiaris [11] = organism: Canis familiaris; experiment: Dose required to reduce blood pressure by 15% (ED15) was calculated.; type: functional; conditions: Canis lupus familiaris
# Canis familiaris [12] = experiment: Renal blood flow was determined at cumulative dose of 0.01 mg/kg in anesthetized dogs by intravenous administration after SCH 23390 pretreatment; type: functional, Canis lupus familiaris, Kidney
# Canis familiaris [13] = experiment: Renal blood flow was determined at cumulative dose of 0.03 mg/kg in anesthetized dogs by intravenous administration after sulpiride pretreatment; type: functional, Canis lupus familiaris, Kidney
# Canis familiaris [14] = experiment: Renal blood flow was determined at cumulative dose of 0.3 mg/kg in anesthetized dogs by intravenous administration after SCH 23390 pretreatment; type: functional, Canis lupus familiaris, Kidney
# Canis familiaris [15] = experiment: Renal blood flow was determined at cumulative dose of 0.03 mg/kg in anesthetized dogs by intravenous administration after SCH 23390 pretreatment; type: functional, Canis lupus familiaris, Kidney
# [16] = target: T2, Adrenergic receptor alpha-1 (Rattus norvegicus, UniProt P15823+P23944+P43140); experiment: Ability to inhibit 50% specific binding of [3H]prazosin radioligand to alpha-1 adrenergic receptor in rat cerebrocortex; type: tissue-based, Cortex
# T2 sequence (P15823 whole entry): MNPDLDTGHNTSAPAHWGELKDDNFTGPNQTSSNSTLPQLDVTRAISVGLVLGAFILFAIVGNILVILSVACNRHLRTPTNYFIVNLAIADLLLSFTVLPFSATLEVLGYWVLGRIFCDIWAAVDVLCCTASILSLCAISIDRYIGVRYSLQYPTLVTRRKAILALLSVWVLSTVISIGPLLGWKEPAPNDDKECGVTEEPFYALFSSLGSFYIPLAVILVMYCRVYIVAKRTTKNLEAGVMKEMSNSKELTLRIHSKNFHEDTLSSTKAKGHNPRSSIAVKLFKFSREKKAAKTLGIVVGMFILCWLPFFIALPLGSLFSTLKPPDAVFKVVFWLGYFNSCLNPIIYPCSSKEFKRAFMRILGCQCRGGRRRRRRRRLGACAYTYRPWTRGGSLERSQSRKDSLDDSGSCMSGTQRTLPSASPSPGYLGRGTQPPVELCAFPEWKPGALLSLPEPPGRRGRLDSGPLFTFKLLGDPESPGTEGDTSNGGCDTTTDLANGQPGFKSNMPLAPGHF
# T2 sequence (P23944 whole entry): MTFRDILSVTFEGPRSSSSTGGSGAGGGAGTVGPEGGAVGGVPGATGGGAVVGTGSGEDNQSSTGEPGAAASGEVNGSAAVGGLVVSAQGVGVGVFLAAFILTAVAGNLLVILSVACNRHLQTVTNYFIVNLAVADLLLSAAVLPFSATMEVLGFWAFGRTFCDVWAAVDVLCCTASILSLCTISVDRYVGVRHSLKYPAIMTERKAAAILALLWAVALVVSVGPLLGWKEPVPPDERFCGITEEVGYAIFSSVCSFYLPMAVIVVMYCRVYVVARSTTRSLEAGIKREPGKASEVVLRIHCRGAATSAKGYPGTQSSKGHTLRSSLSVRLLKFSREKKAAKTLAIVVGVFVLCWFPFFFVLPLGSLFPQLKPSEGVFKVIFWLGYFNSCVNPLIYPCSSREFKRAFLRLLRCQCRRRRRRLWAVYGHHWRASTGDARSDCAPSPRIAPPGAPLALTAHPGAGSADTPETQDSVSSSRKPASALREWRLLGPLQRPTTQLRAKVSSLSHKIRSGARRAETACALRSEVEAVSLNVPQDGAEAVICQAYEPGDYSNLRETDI
# T2 sequence (P43140 whole entry): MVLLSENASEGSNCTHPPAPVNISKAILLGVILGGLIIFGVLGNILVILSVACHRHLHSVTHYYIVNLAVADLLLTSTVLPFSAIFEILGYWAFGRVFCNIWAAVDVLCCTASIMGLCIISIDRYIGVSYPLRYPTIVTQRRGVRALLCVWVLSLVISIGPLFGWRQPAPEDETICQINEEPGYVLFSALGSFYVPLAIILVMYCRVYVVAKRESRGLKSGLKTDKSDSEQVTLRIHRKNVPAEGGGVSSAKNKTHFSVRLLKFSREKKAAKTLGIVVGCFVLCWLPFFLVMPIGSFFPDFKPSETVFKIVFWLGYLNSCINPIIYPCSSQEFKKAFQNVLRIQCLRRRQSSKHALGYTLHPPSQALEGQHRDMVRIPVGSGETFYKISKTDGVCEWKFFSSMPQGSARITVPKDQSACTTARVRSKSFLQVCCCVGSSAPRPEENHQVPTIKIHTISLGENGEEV
# Canis familiaris [17] = experiment: Renal blood flow was determined at cumulative dose of 0.3 mg/kg in anesthetized dogs by intravenous administration after sulpiride pretreatment; type: functional, Canis lupus familiaris, Kidney
# Canis familiaris [18] = experiment: Renal blood flow was determined at cumulative dose of 0.1 mg/kg in anesthetized dogs by intravenous administration after sulpiride pretreatment; type: functional, Canis lupus familiaris, Kidney
# Canis familiaris [19] = experiment: Mean arterial blood pressure was determined at cumulative dose of 0.01 mg/kg in anesthetized dogs by intravenous administration after SCH 23390 pretreatment; type: functional, Canis lupus familiaris
# Canis familiaris [20] = experiment: Mean arterial blood pressure was determined at cumulative dose of 0.01 mg/kg in anesthetized dogs by intravenous administration after sulpiride pretreatment; type: functional, Canis lupus familiaris
# Canis familiaris [21] = experiment: Mean arterial blood pressure was determined at cumulative dose of 0.1 mg/kg in anesthetized dogs by intravenous administration after SCH 23390 pretreatment; type: functional, Canis lupus familiaris
# Canis familiaris [22] = experiment: Mean arterial blood pressure was determined at cumulative dose of 0.3 mg/kg in anesthetized dogs by intravenous administration after SCH 23390 pretreatment; type: functional, Canis lupus familiaris
# Canis familiaris [23] = experiment: Renal blood flow was determined at cumulative dose of 1 mg/kg in anesthetized dogs by intravenous administration after sulpiride pretreatment; type: functional, Canis lupus familiaris, Kidney
# Canis familiaris [24] = experiment: Mean arterial blood pressure (MABP) was evaluated in anesthetized dog after intravenous administration of 1 mg/kg of compound; type: functional, Canis lupus familiaris
# Canis familiaris [25] = experiment: Mean arterial blood pressure was determined at cumulative dose of 0.3 mg/kg in anesthetized dogs by intravenous administration after sulpiride pretreatment; type: functional, Canis lupus familiaris
# Canis familiaris [26] = experiment: Mean arterial blood pressure was determined at cumulative dose of 0.03 mg/kg in anesthetized dogs by intravenous administration after sulpiride pretreatment; type: functional, Canis lupus familiaris
# Canis familiaris [27] = organism: Canis familiaris; experiment: Dose required to reduce blood pressure by 15% (ED15) was calculated; type: functional; conditions: Canis lupus familiaris
# Canis familiaris [28] = experiment: Mean arterial blood pressure (MABP) was evaluated in anesthetized dog by intravenous administration of compound at 1 mg/kg; type: functional, Canis lupus familiaris
# Rattus norvegicus [29] = experiment: Mean arterial blood pressure (MABP) was evaluated in conscious hypertensive rats by peroral administration of compound at 30 mg/kg; type: functional; conditions: route oral
IC50 [4],pA2 [8],IC50 [16],Compound,Max delta MABP (Rattus norvegicus [7]; route oral),ED15 (Canis familiaris [11]),Max delta MABP (Canis familiaris [24]),Max delta MABP (Rattus norvegicus [7]),also measured
800 nM,8.13,8 nM,Cc1cc2c(s1)CCC(CN[C@@H]1CC[C@@H](Oc3ccccc3)[C@@H]1O)C2=O.Cl (some centres not stated),-70 mmHg,0.08 mg/kg,-47 mmHg,–,Delta MABP (Canis familiaris [1]): -14%; Delta RBF (Canis familiaris [2]): 6%; Delta RBF (Canis familiaris [3]): -6%; Delta MABP (Canis familiaris [5]): -22%; Delta MABP (Canis familiaris [6]): -29%; Delta MABP (Canis familiaris [9]): -6%; Delta RBF (Canis familiaris [10]): -1%; Delta RBF (Canis familiaris [12]): -2%; Delta RBF (Canis familiaris [13]): 10%; Delta RBF (Canis familiaris [14]): -1%; Delta RBF (Canis familiaris [15]): -1%; Delta RBF (Canis familiaris [17]): 9%; Delta RBF (Canis familiaris [18]): 9%; Delta MABP (Canis familiaris [19]): -3%; Delta MABP (Canis familiaris [20]): -3%; Delta MABP (Canis familiaris [21]): -10%; Delta MABP (Canis familiaris [22]): -15%; Delta RBF (Canis familiaris [23]): -1%; Delta MABP (Canis familiaris [25]): -21%; Delta MABP (Canis familiaris [26]): -10%
> 1000 nM,7.04,90 nM,Cc1cc2c(s1)CCC(CN[C@H]1CC[C@@H](Oc3ccccc3)[C@@H]1O)C2=O (some centres not stated),–,–,-8 mmHg,inactive,ED15 (Canis familiaris [27]): > 10 mg/kg
100 nM,7.4,45 nM,Cc1cc2c(s1)CCC(CN[C@@H]1CC[C@@H](Oc3ccccc3)[C@H]1O)C2=O (some centres not stated),-34 mmHg,0.61 mg/kg,-31 mmHg,–,–
–,–,–,COc1cc2nc(N3CCN(C(=O)c4ccco4)CC3)nc(N)c2cc1OC [PRAZOSIN],–,0.1 mg/kg,–,–,Max delta MABP (Canis familiaris [28]): -30 mmHg; Max delta MABP (Rattus norvegicus [29]): -45 mmHg
600 nM,7.28,55 nM,Cc1cc2c(s1)CCC(CN[C@H]1CC[C@@H](Oc3ccccc3)[C@H]1O)C2=O (some centres not stated),–,3.3 mg/kg,-16 mmHg,inactive,–
